According to patent publication US6015809A (priority 1999, dated 2000):
Values after ≈ are worked out from the molar mass of the structure shown. Like-named read-outs stand apart in the source and are kept apart here.

How the values were obtained:
Test in all cases: Antifungal activity, MIC microdilution
Format in all cases: cell-based
Candida rugosa = details: strain 94-10, RPMI 1640, 35° C., 24-48 hours
Method: (§1) Briefly the following procedure was used to evaluate such activity. A 96 U-bottom microtiter plate was filled (50 μl/well) with RPMI 1640. The compounds to be evaluated were placed in appropriate wells, and serial diluted in successive wells to provide 11 dilutions. The concentrations ranged from 64 through 0.06 μg/ml. An adjusted inoculum of fungi (50 μl) was added to each well and the plates were incubated at 35° C. for 24-48 hours.

Saccharomyces cerevisiae = tested on: Saccharomyces cerevisiae
Method: as §1

Candida lusitaniae = details: Clavispora lusitaniae; strain 94-3; RPMI 1640, 35° C., 24-48 hours; read-out: MIC
Method: as §1

Candida zeylanoided = details: strain 94-15, RPMI 1640, 35° C., 24-48 hours
Method: as §1

Candida pseudotropicalis = details: strain ATCC 28838, RPMI 1640, 35° C., 24-48 hours
Method: as §1

Candida albicans = details: RPMI 1640, 35° C., 24-48 hours
Method: as §1

Aspergillus flavus = tested on: Aspergillus flavus
Method: as §1

Aspergillus niger = details: strain S-430, RPMI 1640, 35° C., 24-48 hours
Method: as §1

Candida glabrata = details: strain ATCC 90030, RPMI 1640, 35° C., 24-48 hours
Method: as §1, with “Antifungal activity for the compounds of this invention was established by evaluating a representative compound of this invention (Compound I) against several strains of fungi. Briefly” for “Briefly”

Candida krussii = details: strain 94-2, RPMI 1640, 35° C., 24-48 hours
Method: as §1, with “Antifungal activity for the compounds of this invention was established by evaluating a representative compound of this invention (Compound I) against several strains of fungi. Briefly” for “Briefly”

Candida tropicalis = details: RPMI 1640, 35° C., 24-48 hours
Method: as §1, with “Antifungal activity for the compounds of this invention was established by evaluating a representative compound of this invention (Compound I) against several strains of fungi. Briefly” for “Briefly”

Aspergillus fumigatus = details: strain ATCC 26933, RPMI 1640, 35° C., 24-48 hours
Method: as §1, with “Antifungal activity for the compounds of this invention was established by evaluating a representative compound of this invention (Compound I) against several strains of fungi. Briefly” for “Briefly”

Cryptococcus neoformans = details: strain ATCC 90112, RPMI 1640, 35° C., 24-48 hours
Method: as §1, with “Antifungal activity for the compounds of this invention was established by evaluating a representative compound of this invention (Compound I) against several strains of fungi. Briefly” for “Briefly”

[1] = tested on: Filobasidiella neoformans; details: strain ATCC 7472, RPMI 1640, 35° C., 24-48 hours
Method: as §1, with “Antifungal activity for the compounds of this invention was established by evaluating a representative compound of this invention (Compound I) against several strains of fungi. Briefly” for “Briefly”

Candida parapsilosis = details: RPMI 1640, 35° C., 24-48 hours
Method: as §1, with “Antifungal activity for the compounds of this invention was established by evaluating a representative compound of this invention (Compound I) against several strains of fungi. Briefly” for “Briefly”

[2] = Kluyveromyces marxianus, ATCC28838, read-out: MIC
[3] = Aspergillus flavus, ATCC12963, strain ATCC 12963, RPMI 1640, 35° C., 24-48 hours, read-out: MIC
[4] = Aspergillus niger, read-out: MIC
[5] = Nakaseomyces glabratus, ATCC90030, read-out: MIC
[6] = Candida tropicalis, strain 94-14, read-out: MIC
[7] = Aspergillus fumigatus, ATCC26933, read-out: MIC
[8] = Cryptococcus neoformans, ATCC90112, read-out: MIC
[9] = Cryptococcus neoformans, ATCC7472, read-out: MIC
[10] = Lodderomyces parapsilosis, ATCC90018, strain ATCC 90018, read-out: MIC
[11] = Lodderomyces parapsilosis, strain 94-8, read-out: MIC
[12] = Lodderomyces parapsilosis, strain 94-9, read-out: MIC
[13] = Saccharomyces cerevisiae, ATCC2601, strain ATCC 2601, RPMI 1640, 35° C., 24-48 hours, read-out: MIC
[14] = Candida albicans, ATCC90028, strain ATCC 90028

CC1C=CC=CC=CC=CC=CC=CC=CC(OC2OC(C)C(O)C(N)C2O)CC2OC(O)(CC(O)CC(O)C(O)CCC(O)CC(O)CC(=O)OC(C)C(C)C1O)CC(O)C2C(=O)O (stereo not drawn) [Amphtericin B]
MIC (Candida rugosa; Diutina rugosa, read-out: MIC): 0.25 µg/mL (≈ 0.271 µM)
MIC (Saccharomyces cerevisiae; Saccharomyces cerevisiae, ATCC2601): ≤ 0.12 µg/mL
MIC (Candida lusitaniae): ≤ 0.12 µg/mL
MIC (Candida zeylanoided; Candida, read-out: MIC): 0.25 µg/mL (≈ 0.271 µM)
MIC (Candida pseudotropicalis; [2]): 0.25 µg/mL (≈ 0.271 µM)
MIC (Candida albicans; Candida albicans, ATCC90028, strain ATCC 90028, read-out: MIC): 0.25 µg/mL (≈ 0.271 µM)
MIC (Candida albicans; Candida albicans, strain 94-1, read-out: MIC): ≤ 0.12 µg/mL
MIC (Candida albicans; Candida albicans, strain 1063, read-out: MIC): 0.25 µg/mL (≈ 0.271 µM)
MIC (Candida albicans; Candida albicans, strain 1117, read-out: MIC): 0.25 µg/mL (≈ 0.271 µM)
MIC (Candida albicans; Candida albicans, strain C-83, read-out: MIC): 0.25 µg/mL (≈ 0.271 µM)
MIC (Aspergillus flavus; [3]): 2 µg/mL (≈ 2.16 µM)
MIC (Aspergillus niger; [4]): 0.25 µg/mL (≈ 0.271 µM)
MIC (Candida glabrata; [5]): 0.25 µg/mL (≈ 0.271 µM)
MIC (Candida krussii; Candida, read-out: MIC): 0.5 µg/mL (≈ 0.541 µM)
MIC (Candida tropicalis; [6]): 0.25 µg/mL (≈ 0.271 µM)
MIC (Candida tropicalis; strain 94-13): 0.25 µg/mL (≈ 0.271 µM)
MIC (Aspergillus fumigatus; [7]): 0.25 µg/mL (≈ 0.271 µM)
MIC (Cryptococcus neoformans; [8]): ≤ 0.12 µg/mL
MIC [1, 9]: 0.12 µg/mL (≈ 0.13 µM)
MIC (Candida parapsilosis; [10]): ≤ 0.12 µg/mL
MIC (Candida parapsilosis; [11]): 0.25 µg/mL (≈ 0.271 µM)
MIC (Candida parapsilosis; [12]): 0.5 µg/mL (≈ 0.541 µM)

OC(Cn1cncn1)(Cn1cncn1)c1ccc(F)cc1F [Fluconazole]
MIC (Candida rugosa; Diutina rugosa, read-out: MIC): 2 µg/mL (≈ 6.53 µM)
MIC (Saccharomyces cerevisiae; [13]): 8 µg/mL (≈ 26.1 µM)
MIC (Candida lusitaniae): 1 µg/mL (≈ 3.27 µM)
MIC (Candida zeylanoided; Candida, read-out: MIC): ≥ 16 µg/mL
MIC (Candida pseudotropicalis; [2]): ≤ 0.12 µg/mL
MIC (Candida albicans; [14]): ≥ 16 µg/mL
MIC (Candida albicans; Candida albicans, strain 94-1): ≥ 16 µg/mL
MIC (Candida albicans; Candida albicans, strain 1063): 4 µg/mL (≈ 13.1 µM)
MIC (Candida albicans; Candida albicans, strain 1117): 8 µg/mL (≈ 26.1 µM)
MIC (Candida albicans; Candida albicans, strain C-83): ≥ 16 µg/mL
MIC (Aspergillus flavus; [3]): > 16 µg/mL
MIC (Aspergillus niger; [4]): > 16 µg/mL
MIC (Candida glabrata; [5]): 4 µg/mL (≈ 13.1 µM)
MIC (Candida krussii; Candida, read-out: MIC): ≥ 16 µg/mL
MIC (Candida tropicalis; [6]): ≥ 16 µg/mL
MIC (Candida tropicalis; strain 94-13): ≥ 16 µg/mL
MIC (Aspergillus fumigatus; [7]): > 16 µg/mL
MIC (Cryptococcus neoformans; [8]): 8 µg/mL (≈ 26.1 µM)
MIC [1, 9]: 16 µg/mL (≈ 52.2 µM)
MIC (Candida parapsilosis; [10]): 0.5 µg/mL (≈ 1.63 µM)
MIC (Candida parapsilosis; [11]): 0.5 µg/mL (≈ 1.63 µM)
MIC (Candida parapsilosis; [12]): 0.5 µg/mL (≈ 1.63 µM)

Clc1ccc(COC(Cn2ccnc2)c2ccc(Cl)cc2Cl)c(Cl)c1 (stereo not drawn) [Miconazole]
MIC (Candida rugosa; Diutina rugosa, read-out: MIC): ≤ 0.12 µg/mL
MIC (Saccharomyces cerevisiae; [13]): ≤ 0.12 µg/mL
MIC (Candida lusitaniae): ≤ 0.12 µg/mL
MIC (Candida zeylanoided; Candida, read-out: MIC): 0.25 µg/mL (≈ 0.601 µM)
MIC (Candida pseudotropicalis; [2]): ≤ 0.12 µg/mL
MIC (Candida albicans; [14]): 0.5 µg/mL (≈ 1.2 µM)
MIC (Candida albicans; Candida albicans, strain 94-1): 8 µg/mL (≈ 19.2 µM)
MIC (Candida albicans; Candida albicans, strain 1063): 1 µg/mL (≈ 2.4 µM)
MIC (Candida albicans; Candida albicans, strain 1117): 1 µg/mL (≈ 2.4 µM)
MIC (Candida albicans; Candida albicans, strain C-83): 8 µg/mL (≈ 19.2 µM)
MIC (Aspergillus flavus; Aspergillus flavus, ATCC12963): 0.5 µg/mL (≈ 1.2 µM)
MIC (Aspergillus niger; [4]): 4 µg/mL (≈ 9.61 µM)
MIC (Candida glabrata; [5]): ≤ 0.12 µg/mL
MIC (Candida krussii; Candida, read-out: MIC): 2 µg/mL (≈ 4.81 µM)
MIC (Candida tropicalis; [6]): 4 µg/mL (≈ 9.61 µM)
MIC (Candida tropicalis; strain 94-13): 4 µg/mL (≈ 9.61 µM)
MIC (Aspergillus fumigatus; [7]): 1 µg/mL (≈ 2.4 µM)
MIC (Cryptococcus neoformans; [8]): ≤ 0.12 µg/mL
MIC [1, 9]: 0.25 µg/mL (≈ 0.601 µM)
MIC (Candida parapsilosis; [10]): ≤ 0.12 µg/mL
MIC (Candida parapsilosis; [11]): 0.25 µg/mL (≈ 0.601 µM)
MIC (Candida parapsilosis; [12]): 0.5 µg/mL (≈ 1.2 µM)

C[C@@H]1[C@H](O)[C@@H](C)/C=C/C=C/CC/C=C/C=C/C=C/C=C/C(O[C@H]2O[C@H](C)[C@@H](O)[C@H](N)[C@@H]2O)CC2O[C@](O)(CC(O)C(O)CCC(O)CC(O)CC(O)CC(=O)O[C@H]1C)CC(O)C2C(=O)O (stereo partly drawn) [Nystatin]
MIC (Candida rugosa): 2 µg/mL (≈ 2.16 µM)
MIC (Saccharomyces cerevisiae; strain ATCC 2601, RPMI 1640, 35° C., 24-48 hours): 2 µg/mL (≈ 2.16 µM)
MIC (Candida zeylanoided): 1 µg/mL (≈ 1.08 µM)
MIC (Candida pseudotropicalis): 1 µg/mL (≈ 1.08 µM)
MIC (Candida albicans; strain 94-1): 2.0 µg/mL (≈ 2.16 µM)
MIC (Candida albicans; strain 1063): 2 µg/mL (≈ 2.16 µM)
MIC (Candida albicans; strain 1117): 1 µg/mL (≈ 1.08 µM)
MIC (Candida albicans; strain ATCC 90028): 1 µg/mL (≈ 1.08 µM)
MIC (Candida albicans; strain C-83): 2 µg/mL (≈ 2.16 µM)
MIC (Aspergillus flavus; strain ATCC 12963, RPMI 1640, 35° C., 24-48 hours): ≥ 16 µg/mL
MIC (Aspergillus niger): 4 µg/mL (≈ 4.32 µM)
MIC (Candida glabrata): 1 µg/mL (≈ 1.08 µM)
MIC (Candida krussii): 2 µg/mL (≈ 2.16 µM)
MIC (Candida tropicalis; strain 94-13): 1 µg/mL (≈ 1.08 µM)
MIC (Candida tropicalis; strain 94-14): 2 µg/mL (≈ 2.16 µM)
MIC (Aspergillus fumigatus): 1 µg/mL (≈ 1.08 µM)
MIC (Cryptococcus neoformans): 0.5 µg/mL (≈ 0.54 µM)
MIC [1]: 0.5 µg/mL (≈ 0.54 µM)
MIC (Candida parapsilosis; strain 94-8): 1 µg/mL (≈ 1.08 µM)
MIC (Candida parapsilosis; strain 94-9): 1 µg/mL (≈ 1.08 µM)
MIC (Candida parapsilosis; strain ATCC 90018): 1 µg/mL (≈ 1.08 µM)
